Experimental data reported in US20160183537A1 (priority 2014, published 2016).

Experiments:
Type in all cases: in vivo
[1] = tested on: Bean Rust (Uromyces appendiculatus); assay: Greenhouse control of bean rust, second experiment; details: common bean, 10 days after infection (200 k conidia/ml), RTI472 and SERENADE OPTIMUM 1×10^8 cfu/ml, Tebuconazole 50 g a.i./ha, Chlorothalonil 500 g a.i./ha, non-treated 23% disease
[2] = tested on: Pepper Botrytis Blight (Botrytis cinerea); assay: Greenhouse control of Pepper Botrytis Blight; details: 7 days after infection (1M conidia/ml), RTI472 and SERENADE OPTIMUM 1×10^8 cfu/ml, Tebuconazole 50 g a.i./ha, Chlorothalonil 500 g a.i./ha, non-treated 6% disease
[3] = tested on: Soybean Powdery Mildew (Microsphaera diffusa); assay: Greenhouse control of soybean powdery mildew; details: 9 days after placing between infected flats, 1×10^8 cfu/ml, Tebuconazole (HORIZON) 50 g a.i./ha, non-treated 70% disease
[4] = tested on: Pepper Botrytis Blight (Botrytis cinerea); assay: Greenhouse dose response for control of Pepper Botrytis Blight; details: 3 days after infection (1M conidia/ml), 50 g a.i./ha
[5] = tested on: Pepper Botrytis Blight (Botrytis cinerea); assay: Greenhouse control of Pepper Botrytis Blight at varying pathogen inoculation rates; details: 4 days after infection, biologicals 1 × 10^8, Tebuconazole 50 g a.i./ha, non-treated 65% disease

In the case of `N#Cc1c(Cl)c(Cl)c(Cl)c(C#N)c1Cl` [Chlorothalonil], the “Percent Disease Control” value [1] is reported as 100 a Percent and the “Percent Disease Control” value [2] is reported as 99 a Percent.
`CC(C)(C)C(O)(CCc1ccc(Cl)cc1)Cn1cncn1` (centres unmarked) [Tebuconazole] was tested, and the “Percent Disease Control” value [1] was 100 a Percent, the “Percent Disease Control” value [3] was 100 a Percent and the “Percent Disease Control” value [2] was 99 a Percent. For the same compound, the “Percent Disease Control” value [4] was 100 a Percent, the “Percent Disease Control” value ([5]; inoculum 1M conidia/ml) was 100 a Percent and the “Percent Disease Control” value ([5]; inoculum 2M conidia/ml) was 94 a Percent.
